According to patent publication US20150289512A1, “METHOD FOR PROMOTING PLANT GROWTH” (SUMITOMO CHEMICAL COMPANY, LIMITED, priority 2012, published 2015):

Columns and labels:
Type in all cases: in vivo
[1] = tested on: Corn seeds (variety: Pioneer 120 31P41); assay: Test Example 14: growth promotion under low-temperature stress by soil drench treatment of corn; conditions: Zea mays, 120 h, soil drench 20 ml, low-temperature stress 5 days at 2.5° C., health score 0-5, average of 4 individuals, read-out: Relative value of score (%- untreated control plot); for change in vivo at 10 ppm: concentration tested 10 ppm; for change in vivo at 1 ppm: concentration tested 1 ppm; for change in vivo at 0.3 ppm: concentration tested 0.3 ppm
Protocol: Test for Evaluating Growth Promotion Under Low-Temperature Stress by Soil Drench Treatment of Corn
Corn seeds (variety: Pioneer 120 31P41) were seeded in a culture soil (Aisai) in a plastic pot (φ55 mm×height of 58 mm), and cultivated for 7 days at 20-25° C., an illuminance of about 5,000 lux, and a day length of 16 hours.
A DMSO solution, which contained one of the compounds 1 to 9, 16, 17, 20, 23, 24, 28 to 32, 34, 45, 48, 50, 82 and 85 of the present invention at a concentration of 1,000-fold concentration of each test concentration, was prepared, and then diluted with distilled water to obtain each test solution. After that, 20 ml of the obtained test solution was used to perform soil drench treatment on the foot of the test plants. The test plants were cultivated for 2 days under the conditions of a temperature of 27° C., a humidity of 40-80%, an illuminance of about 5,000 lux, and a day length of 16 hours. This was used as a test plot treated with the compound. A plot having undergone the soil drench treatment with 20 ml of a 0.1% DMSO aqueous solution instead of the above DMSO solution containing the compound was used as an untreated control plot.
The plants having undergone the soil drench treatment were cultivated for 5 days under the conditions of a temperature of 2.5° C., a humidity of 40-80%, an illuminance of about 5,000 lux, and a day length of 16 hours, thereby exposing to low-temperature stress. After the exposure to the low-temperature stress, the plants were cultivated for 4 days under the conditions of a temperature of 27° C., a humidity of 40-80%, an illuminance of about 5,000 lux, and a day length of 16 hours.
After the cultivation, the health of each plant was scored according to the following evaluation index.
5: 4 or more leaves in which ⅔ or more of the area was healthy
4: 3 leaves in which ⅔ or more of the area was healthy
3: 2 leaves in which ⅔ or more of the area was healthy
2: 1 leaf in which ⅔ or more of the area was healthy
1: No leaf in which ⅔ or more of the area was healthy
An average of the scores of the health of 4 individuals was determined.

Nicotiana benthamiana [2] = assay: Test Example 5: growth promotion under low-temperature stress by hydroponics of Nicotiana benthamiana, 1 ppm; conditions: 1 ppm in medium, low-temperature stress 7 days at 1.5±1.0° C., green leaf area 3 days later, equation (1)
Outline: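 Seeds were grown in half-strength Murashige–Skoog medium (pH 5.8) containing 1 ppm compound for 7 days at 22 °C, then chilled 7 days at 1.5±1.0 °C and recovered 3 days at 22 °C. Green leaf area was imaged. Relative leaf area = 100×(treated − untreated)/(unstressed untreated − stressed untreated).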

[3] = tested on: Rice (variety: Nipponbare); assay: Test Example 3: promotion of root growth by hydroponics of rice, 0.1 ppm; conditions: Oryza sativa, hydroponic solution containing the test compound at 0.1 ppm, average of 4 or 5 individuals, read-out: Relative value of length of seminal root (%-untreated control plot)
Outline: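 Surface-sterilised Nipponbare seeds were germinated 3 days in the dark at 28 °C in ¼-strength Hoagland solution containing 0.1 ppm compound; DMSO-only solution served as control. Seedlings were then grown 3 days hydroponically at 26 °C, 4,000 lux, 16 h day. Seminal root length was measured and averaged over 4–5 plants.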

Nicotiana benthamiana [4] = assay: Test Example 6: growth promotion under low-temperature stress by hydroponics of Nicotiana benthamiana, 0.1 ppm; conditions: 0.1 ppm in medium, low-temperature stress 7 days at 1.5±1.0° C., green leaf area 3 days later, equation (1)
Protocol: Test for Evaluating Growth Promotion Under Low-Temperature Stress by Hydroponics of Nicotiana benthamiana
A DMSO solution, which contained one of the compounds 3, 7, 14, 16, 36, 39, 43, 45, 50, 52, 53, 54, 56, 57, 62, 63, 64, 65, 68, 69, 70, 71, 73, 74, 76, 77, 79, 80, 81, 84, 85, 86 and 87 of the present invention at a concentration of 100 ppm, was prepared. The DMSO solution of the compound of the present invention was added at a volume ratio of 1/1,000 to the Murashige•Scoog medium of a ½-fold concentration for the Murashige•Scoog medium (a medium containing 2.3 g of mixed salts (manufactured by Wako Pure Chemical Industries, Ltd.), 200 mg of Myo-inositol (manufactured by Sigma-Aldrich Co. LLC.), 2 mg of nicotinic acid (manufactured by Wako Pure Chemical Industries, Ltd.), 2 mg of pyridoxine hydrochloride (manufactured by Wako Pure Chemical Industries, Ltd.), 20 mg of thiamine hydrochloride (manufactured by Wako Pure Chemical Industries, Ltd.), 20 g of sucrose (manufactured by Wako Pure Chemical Industries, Ltd.), and 1 g of MES (manufactured by DOJINDO LABORATORIES) per 1 L of water and having pH adjusted to 5.8), thereby preparing a medium containing the compound of the present invention at a concentration of 0.1 ppm.
Seeds of Nicotiana benthamiana were seeded in the 5 μL of the medium and cultured overnight at 22° C. Thereafter, 45 μL of the medium containing the compound of the present invention at a concentration of 0.1 ppm was added thereto, and the seeds are cultivated for 7 days at 22° C., an illuminance of 4,000 lux, and a day length of 16 hours, and the nursery plants raised from the Nicotiana benthamiana were treated with the compound. Moreover, instead of the above medium a test plot, which was obtained by performing the same treatment by using a medium prepared by adding DMSO to the Murashige•Scoog medium of ½-fold concentration at a volume ratio of 1/1,000, was used as a control plot not treated with the compound.
The nursery plants of the Nicotiana benthamiana treated with the compound were subjected to low-temperature treatment by being cultivated for 7 days at 1.5±1.0° C., an illuminance of 2,000 lux, and a day length of 16 hours.
The nursery plants of the Nicotiana benthamiana having undergone the low-temperature stress treatment were cultivated for 3 days at 22° C., an illuminance of 4,000 lux, and a day length of 16 hours. Thereafter, the area of green leaf was quantified by Scanalyzer HTS (manufactured by LemnaTec GmbH). Moreover, the value of the control plot not treated with the compound that had not yet been subjected to the low-temperature stress treatment was measured in the same manner. A value of a relative leaf area was calculated based on the following equation (1), and if the value of a relative leaf area was 5 or greater, the compound was evaluated to have a mitigating effect. As a result of the evaluation, it was confirmed that when the plant was treated with one of the compounds 3, 7, 14, 16, 36, 39, 43, 45, 50, 52, 53, 54, 56, 57, 62, 63, 64, 65, 68, 69, 70, 71, 73, 74, 76, 77, 79, 80, 81, 84, 85, 86 and 87 of the present invention at 0.1 ppm, the value of a relative leaf area was 5 or greater, compared to the area of green leaf of the control plot not treated with compound. Accordingly, it was confirmed that the treatment using the compound of the present invention brings about a growth promotion effect.
Relative leaf area=100*(a green area of a plot treated with the compound of the present invention−a green area of a control plot not treated with the compound of the present invention)/(a green area of a control plot not treated with the compound of the present invention that has not yet been subjected to low-temperature stress treatment−green area of a control plot not treated with the compound of the present invention) Equation (1): […]

[5] = tested on: Rice (variety: Nipponbare); assay: Test Example 1: promotion of root growth by hydroponics of rice, 10 ppm; conditions: Oryza sativa, hydroponic solution containing the test compound at 10 ppm, average of 4 or 5 individuals, read-out: Relative value of length of seminal root (%-untreated control plot)
Outline: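 Surface-sterilised seeds germinated 3 days in the dark at 28° C in hydroponic solution with compound at 10 ppm, then grown 3 days hydroponically with compound at 10 ppm (26° C, 4,000 lux, 16 h day, 50% humidity). Seminal root length measured by image analysis, averaged over 4 or 5 plants per plot.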

Row | SMILES | change in vivo at 10 ppm [1] | relative leaf area (% of untreated control) at 1 ppm (Nicotiana benthamiana [2]) | change in vivo at 0.1 ppm [3] | change in vivo at 1 ppm [1] | relative leaf area (% of untreated control) at 0.1 ppm (Nicotiana benthamiana [4]) | change in vivo at 0.3 ppm [1] | change in vivo at 10 ppm [5]
1 | O=C(O)c1cc2cc(C(F)(F)F)ccc2o1 [Compound 2, 5-trifluoromethylbenzofuran-2-carboxylic acid] | > 5% | ≥ 5% | > 5% |  |  |  | 
2 | COC(=O)c1nc2ccccc2o1 [Compound 16, methyl benzoxazole-2-carboxylate] |  |  | > 5% | > 5% | ≥ 5% |  | 
3 | COc1ccc(NC(=O)c2cc3cc(C(F)(F)F)ccc3o2)c(OC)c1 [Compound 5, N-(2,4-dimethoxyphenyl)-5-trifluoromethylbenzofuran-2-carboxamide] |  | ≥ 5% |  |  |  | > 5% | > 5%
4 | O=C(O)c1nc2cc(C(F)(F)F)ccc2[nH]1 [Compound 20, 5-(trifluoromethyl)-benzimidazole-2-carboxylic acid] |  | ≥ 5% | > 5% |  |  | > 5% | 
5 | O=C(O)c1cc2cc(C(F)(F)F)ccc2[nH]1 [Compound 7, 5-trifluoromethylindole-2-carboxylic acid] |  |  | > 5% | > 5% | ≥ 5% |  | 
6 | CCOC(=O)c1cc2cc(C(F)(F)F)ccc2o1 [Compound 4, ethyl 5-trifluorometethylbenzofuran-2-carboxylate] | > 5% | ≥ 5% |  |  |  |  | > 5%
